Reference: paper PMC10470053, “Diverse p120RasGAP interactions with doubly phosphorylated partners EphB4, p190RhoGAP, and Dok1” (The Journal of Biological Chemistry, 2023)
Numbering of substitutions follows the chain as printed. Values joined by “and” are separate entries in the source; they are usually repeats but may differ in a detail not shown here. Equal entries are not always repeated. Square brackets hold non-standard residues; d marks the D form. Peptide text beside a SMILES is read from it. pY = N[C@@H](Cc1ccc(OP(=O)(O)O)cc1)C(=O)O

Tests used:
[1] = target: T1, RasGAP^232(mut) (R398E/K400E, C-SH2 mutant) (Homo sapiens, UniProt P20936, C236S/C261S/C372S/C402S/K400E/R398E); test: Isothermal titration calorimetry, C-SH2 mutant RasGAP^232(mut); type: binding
T1 construct: (residues 174–444, termed RasGAP^232); hexahistidine (TEV-cleavable) (N, cleaved yes); made in house; host or cells: E. coli Rosetta (DE3)
T1 sequence (P20936 174-444 C236S/C261S/C372S/R398E/K400E/C402S): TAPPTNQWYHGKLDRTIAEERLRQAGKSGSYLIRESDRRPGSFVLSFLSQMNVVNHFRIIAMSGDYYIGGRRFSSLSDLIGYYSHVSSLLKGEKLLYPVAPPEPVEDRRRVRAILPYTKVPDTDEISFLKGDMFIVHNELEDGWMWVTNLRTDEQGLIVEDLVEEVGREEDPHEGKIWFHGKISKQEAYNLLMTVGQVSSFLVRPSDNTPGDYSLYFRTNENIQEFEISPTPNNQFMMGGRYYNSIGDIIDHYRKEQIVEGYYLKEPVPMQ
Method: One possibility for the difference in binding affinity of EphB4 compared to the other dually phosphorylated peptides is that only a single SH2 domain engages EphB4 at any time. This is supported by the observation that the Kd of binding, 2 μM, is similar to other reported individual SH2 phosphotyrosine interactions (for examples see ([60])) and the evidence of only one inflection point in the doubly phosphorylated EphB4–binding isotherm (Figs. 2B and S3). To assess this hypothesis, we generated two RasGAP^232 mutants that disrupt the phosphotyrosine-binding sites of either the N- or C-SH2 domains and conducted further ITC experiments. […] For the ‘FLVR-unique” C-terminal SH2, we introduced a double mutation R398E/K400E, to abrogate phosphotyrosine binding guided by our previous work ([52]), termed RasGAP^232(mut) (Fig. 2D). We additionally generated a double mutant of both SH2 domains, RasGAP^2(mut)32(mut), and purified each of these proteins (Fig. S2, B–D). […] We then assessed phosphopeptide binding of the single mutant SH2 domains. […] This is similar to the Kd of 2 ± 0.7 μM observed for titration of this peptide into WT RasGAP^232.
To attempt to parse the specificity of RasGAP for the more N- or C-terminal EphB juxtamembrane phosphotyrosines pY590 and pY596, we assessed the affinity of RasGAP^232(mut) for shorter synthesized EphB4 peptides corresponding to either of the two phosphotyrosines (Fig. 1C). […] Alternatively, the C-terminal SH2 may contribute to a second weaker interaction in a tandem interaction. […] This low-affinity interaction represents a primarily single N-SH2-dominant interaction.
Purified RasGAP^232 protein and solubilized peptides were dialyzed overnight against buffer containing 20 mM Tris pH 8, 250 mM NaCl in Slide-A-Lyzer 3 ml 10 kDa molecular weight cut off cassettes (Spectra-Por) and Micro Float-A-Lyzer 0.1 to 0.2 ml, 0.1 to […] molecular weight cut off devices (Spectra-Por), respectively. Protein and peptide concentrations were determined by A280 measured on a Nanodrop Lite (Thermo Fisher Scientific) instrument using extinction coefficients of 45,840 M^−1 cm^−1 for RasGAP^232 (and mutants), 917 M^−1 cm^−1 for the doubly phosphorylated EphB4 peptide, and 458.5 M^−1 cm^−1 for the singly phosphorylated EphB4 peptides as determined by ([74]). Dok1 peptide concentration was confirmed using Amino Acid Analysis performed at UC Davis Molecular Structure Facility. Samples were centrifuged for 10 min at 4 °C and degassed for 7 min using a Degassing Station (TA Instruments). ITC experiments were performed on a Nano ITC (TA Instruments) by loading protein into the 190 μl sample cell and titrating 20 times with 2.5 μl peptide in the titration syringe. Concentrations for sample cell and syringe for each trial are included in Table S1. The data were analyzed in NanoAnalyze software (TA Instrument) using blank (constant) and independent models (https://www.tainstruments.com/itcrun-dscrun-nanoanalyze-software/).

[2] = target: T2, RasGAP^232 (p120RasGAP N-SH2, SH3 and C-SH2 domains, residues 174-444) (human, UniProt P20936 174-444, C236 | C261 | C372 | C402); test: ITC; protein in the 190 ul sample cell, titrated 20 times with 2.5 ul peptide from the syringe; 20 mM Tris pH 8, 250 mM NaCl; Nano ITC (TA Instruments); independent binding model; settings: both partners purified
T2 construct: p120RasGAP (RASA1), human, UniProt P20936, residues 174-444 (N-SH2, SH3, C-SH2), with four cysteine to serine mutations; also called WT RasGAP^232; apo RasGAP^232; source: E. coli Rosetta (DE3), purified (Ni-NTA, TEV cleavage, anion exchange, SEC)
T2 sequence (looked up): T1 sequence (P20936 174-444 C236S/C261S/C372S/R398E/K400E/C402S) with E225R, E227K

[3] = target: T3, RasGAP^232(mut) (RasGAP^232 with R398E/K400E in the C-SH2 domain) (human, UniProt P20936 174-444, C236S | C261S | C372S | C402S | R398E | K400E); test: ITC; RasGAP^232 protein (WT or mutant) in the 190 µl sample cell, peptide in the syringe, 20 injections of 2.5 µl; 20 mM Tris pH 8, 250 mM NaCl; Nano ITC (TA Instruments); blank (constant) and independent models; values of single trials, averages and stdev; settings: both partners purified
T3 construct: p120RasGAP, human, UniProt P20936, residues 174-444; Made by site-directed mutagenesis of RasGAP^232, which holds the four cysteine to serine mutations; also called C-SH2 mutant; source: E. coli Rosetta (DE3), purified (same protocol as the WT counterpart); not shown: His6, N-terminal, cleaved
T3 sequence (looked up): T1 sequence (P20936 174-444 C236S/C261S/C372S/R398E/K400E/C402S)

[4] = target: T4, RasGAP^232(mut) (RasGAP^232 with R398E/K400E in the C-SH2 domain) (human, UniProt P20936 174-444, R398E | K400E | C236 | C261 | C372 | C402); test: ITC; protein in the 190 ul sample cell, titrated 20 times with 2.5 ul peptide from the syringe; 20 mM Tris pH 8, 250 mM NaCl; Nano ITC (TA Instruments); independent binding model; settings: both partners purified
T4 construct: p120RasGAP (RASA1), human, UniProt P20936, residues 174-444, mutant of RasGAP^232 in the C-SH2 domain; also called C-SH2 mutant; source: E. coli Rosetta (DE3), purified (same protocol as the WT: Ni-NTA, TEV cleavage, anion exchange, SEC)
T4 sequence (looked up): T1 sequence (P20936 174-444 C236S/C261S/C372S/R398E/K400E/C402S)

[5] = ITC, average of trials (Table S1)

Molecule: CC(=O)N[C@@H](CC(=O)O)C(=O)N1CCC[C@H]1C(=O)N[C@@H](Cc1ccccc1)C(=O)N[C@H](C(=O)N[C@@H](Cc1ccc(OP(=O)(O)O)cc1)C(=O)N[C@@H](CCC(=O)O)C(=O)N[C@@H](CC(=O)O)C(=O)N1CCC[C@H]1C(=O)N[C@@H](CC(N)=O)C(=O)N[C@@H](CCC(=O)O)C(N)=O)[C@@H](C)O [pY596 EphB4] (Ac-DPFT[pY]EDPNE-NH2)
- weaker binding than the doubly phosphorylated EphB4 peptide ([1]; ITC Kd, singly versus doubly phosphorylated EphB4 peptide): about 10 fold
- n ([1]; ITC stoichiometry, mean ± SD of trials): 0.6 ± 0.2
- -T∆S [1, 5]: -1.2 kcal/mol
- Ka [1, 5]: 0.05 µM⁻¹
- ∆G [1, 5]: -6.38 kcal/mol
- ΔH ([1]; ITC, mean ± SD of trials): -5.26 kcal/mol and -5.26 ± 0.96 kcal/mol
- ΔS ([1]; ITC, mean ± SD of trials): 15 J/mol∗K and 15 ± 13 J/mol∗K
- -T∆S ([1]; trial 2, ITC): -1.58 kcal/mol
- ∆G ([1]; trial 2, ITC): -6.36 kcal/mol
- ∆H ([1]; trial 2, ITC): -4.8 kcal/mol
- ∆S ([1]; trial 2, ITC): 22.0 J/mol*K
- -T∆S ([1]; trial 3, ITC): -0.048 kcal/mol
- Ka ([1]; trial 3, ITC): 0.05 µM⁻¹
- ∆G ([1]; trial 3, ITC): -6.48 kcal/mol
- ∆H ([1]; trial 3, ITC): -6.43 kcal/mol
- ∆S ([1]; trial 3, ITC): 0.8 J/mol*K

B1: doubly phosphorylated Dok1 peptide (residues 291-322, pY296 and pY315) (peptide)
peptide: Ac-SPPAL[pY]AEPLDSLRIAPCPSQDSL[pY]SDPLDST-NH2
SMILES: CC[C@H](C)[C@H](NC(=O)[C@H](CCCNC(=N)N)NC(=O)[C@H](CC(C)C)NC(=O)[C@H](CO)NC(=O)[C@H](CC(=O)O)NC(=O)[C@H](CC(C)C)NC(=O)[C@@H]1CCCN1C(=O)[C@H](CCC(=O)O)NC(=O)[C@H](C)NC(=O)[C@H](Cc1ccc(OP(=O)(O)O)cc1)NC(=O)[C@H](CC(C)C)NC(=O)[C@H](C)NC(=O)[C@@H]1CCCN1C(=O)[C@@H]1CCCN1C(=O)[C@H](CO)NC(C)=O)C(=O)N[C@@H](C)C(=O)N1CCC[C@H]1C(=O)N[C@@H](CS)C(=O)N1CCC[C@H]1C(=O)N[C@@H](CO)C(=O)N[C@@H](CCC(N)=O)C(=O)N[C@@H](CC(=O)O)C(=O)N[C@@H](CO)C(=O)N[C@@H](CC(C)C)C(=O)N[C@@H](Cc1ccc(OP(=O)(O)O)cc1)C(=O)N[C@@H](CO)C(=O)N[C@@H](CC(=O)O)C(=O)N1CCC[C@H]1C(=O)N[C@@H](CC(C)C)C(=O)N[C@@H](CC(=O)O)C(=O)N[C@@H](CO)C(=O)N[C@H](C(N)=O)[C@@H](C)O
notes: Dok1, UniProt Q99704, residues 291-322; also called pYpY Dok1; source: synthetic peptide, bought: GenScript
- Kd [2]: 0.03 ± 0.02 µM
- dH [2]: -18.6 ± 0.717 kcal/mol
- stoichiometry N [2]: 0.8 ± 0.1

B2: singly phosphorylated EphB4 peptide pY596 (peptide)
peptide: Ac-DPFT[pY]EDPNE-NH2
SMILES: CC(=O)N[C@@H](CC(=O)O)C(=O)N1CCC[C@H]1C(=O)N[C@@H](Cc1ccccc1)C(=O)N[C@H](C(=O)N[C@@H](Cc1ccc(OP(=O)(O)O)cc1)C(=O)N[C@@H](CCC(=O)O)C(=O)N[C@@H](CC(=O)O)C(=O)N1CCC[C@H]1C(=O)N[C@@H](CC(N)=O)C(=O)N[C@@H](CCC(=O)O)C(N)=O)[C@@H](C)O
notes: EphB4, UniProt P54760; also called pY596 EphB4; source: synthetic peptide, bought: GenScript
- Ka [3]: 40000 M⁻¹ and 50000 M⁻¹
- Kd [3]: 24 µM and 22 µM and 18 µM
- stoichiometry N [3]: 0.7 and 0.8 and 0.4

B3: singly phosphorylated EphB4 peptide pY590 (peptide)
peptide: Ac-GTKV[pY]IDPFT-NH2
SMILES: CC[C@H](C)[C@H](NC(=O)[C@H](Cc1ccc(OP(=O)(O)O)cc1)NC(=O)[C@@H](NC(=O)[C@H](CCCCN)NC(=O)[C@@H](NC(=O)CNC(C)=O)[C@@H](C)O)C(C)C)C(=O)N[C@@H](CC(=O)O)C(=O)N1CCC[C@H]1C(=O)N[C@@H](Cc1ccccc1)C(=O)N[C@H](C(N)=O)[C@@H](C)O
notes: EphB4, UniProt P54760, residues 586-595; also called pY590 EphB4; source: synthetic peptide, bought: GenScript
- Kd [3]: 24.2 µM and 14.6 µM and 9.7 µM
- stoichiometry N [3]: 0.7 and 0.8

B4: singly phosphorylated EphB4 peptide pY590 (residues 586-595) (peptide)
peptide: Ac-GTKV[pY]IDPFT-NH2
SMILES: CC[C@H](C)[C@H](NC(=O)[C@H](Cc1ccc(OP(=O)(O)O)cc1)NC(=O)[C@@H](NC(=O)[C@H](CCCCN)NC(=O)[C@@H](NC(=O)CNC(C)=O)[C@@H](C)O)C(C)C)C(=O)N[C@@H](CC(=O)O)C(=O)N1CCC[C@H]1C(=O)N[C@@H](Cc1ccccc1)C(=O)N[C@H](C(N)=O)[C@@H](C)O
notes: EphB4 juxtamembrane region, UniProt P54760, residues 586-595; also called pY590 EphB4; source: synthetic peptide, bought: GenScript
- Kd [4]: 16 ± 7 µM
- dH [4]: -3.7 kcal/mol
- stoichiometry N [4]: 0.8 ± 0.1

B5: singly phosphorylated EphB4 peptide pY596 (peptide)
peptide: Ac-DPFT[pY]EDPNE-NH2
SMILES: CC(=O)N[C@@H](CC(=O)O)C(=O)N1CCC[C@H]1C(=O)N[C@@H](Cc1ccccc1)C(=O)N[C@H](C(=O)N[C@@H](Cc1ccc(OP(=O)(O)O)cc1)C(=O)N[C@@H](CCC(=O)O)C(=O)N[C@@H](CC(=O)O)C(=O)N1CCC[C@H]1C(=O)N[C@@H](CC(N)=O)C(=O)N[C@@H](CCC(=O)O)C(N)=O)[C@@H](C)O
notes: EphB4 juxtamembrane region, UniProt P54760; also called pY596 EphB4; source: synthetic peptide, bought: GenScript
- Kd [4]: 21 ± 3 µM
- dH [4]: -5.26 ± 0.956 kcal/mol
- stoichiometry N [4]: 0.6 ± 0.2
